This passage reports IC50 results from BindingDB's records for doi:10.1021/bi400945y (Johns Hopkins Bloomberg School of Public Health, 2013).

This assay deals with T1, Enoyl-acyl carrier reductase ENR (Toxoplasma gondii, UniProt Q6UCJ9).
T1 sequence (Q6UCJ9 whole entry): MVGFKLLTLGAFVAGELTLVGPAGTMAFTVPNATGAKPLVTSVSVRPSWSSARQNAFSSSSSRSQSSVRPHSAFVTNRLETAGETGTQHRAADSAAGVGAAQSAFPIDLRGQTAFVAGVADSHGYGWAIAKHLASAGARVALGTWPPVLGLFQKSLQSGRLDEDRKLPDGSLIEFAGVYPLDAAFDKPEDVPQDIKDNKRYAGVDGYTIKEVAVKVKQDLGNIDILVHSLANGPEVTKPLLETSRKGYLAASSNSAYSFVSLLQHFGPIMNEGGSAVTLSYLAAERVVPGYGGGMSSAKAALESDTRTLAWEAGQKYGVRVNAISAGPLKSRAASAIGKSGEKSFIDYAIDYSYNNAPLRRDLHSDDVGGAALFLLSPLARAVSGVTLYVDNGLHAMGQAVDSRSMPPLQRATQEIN
Nature of the assay: TgENR Inhibition Assay. To be noted: pH 7.5.
By IC50 is commonly meant the point on the concentration scale where inhibition reaches its midpoint. Compound `Oc1cc(Cl)ccc1Oc1ccc(NCc2ccccc2)cc1Cl` gave a concentration for half-maximal inhibition (IC50) of 13 nM. This lies in the double-digit nanomolar range. In turn, `N#Cc1ccccc1CNc1ccc(Oc2ccc(Cl)cc2O)c(Cl)c1` had an IC50 of 16 nM. `Oc1ccc(Oc2ccc(Cl)cc2O)c(Cl)c1` registered an IC50 of 3 nM. As to `Cc1cc(CC(=O)NCc2ccc(Oc3ccc(Cl)cc3O)c(Cl)c2)on1` [N‐{[3‐chloro‐4‐(4‐chloro‐2‐ hydroxyphenoxy)phenyl]methyl}‐2‐(3‐methyl‐1,2‐ oxazol‐5‐yl)acetamide (28)], half-maximal inhibition (IC50) was put at 33 nM. Next, `N#Cc1ccc(Oc2ccc(Cl)cc2Cl)c(O)c1` [4‐(2,4‐dichlorophenoxy)‐3‐hydroxybenzonitrile (19)]: 24 nM; `Oc1cc(Cl)ccc1Oc1ccc(CNc2ccccc2)cc1Cl` [5‐chloro‐2‐{2‐chloro‐4‐ [(phenylamino)methyl]phenoxy}phenol (26)]: 31 nM; `CCc1ccc(Oc2ccc(Cl)cc2Cl)c(O)c1` [2‐(2,4‐dichlorophenoxy)‐5‐ethylphenol (11)]: 8 nM.

`Oc1cc(Cl)ccc1Oc1ccc(Cn2ccnn2)cc1Cl` [5‐chloro‐2‐[2‐chloro‐4‐(1,2,3‐triazol‐1‐ ylmethyl)phenoxy]phenol (24)] displayed a half-inhibitory concentration (IC50) of 26 nM. Compared with the last compound, the IC50 is about 3.2-fold higher.

The compound `Cc1cc(C(=O)NCc2ccc(Oc3ccc(Cl)cc3O)c(Cl)c2)no1` [N‐{[3‐chloro‐4‐(4‐chloro‐2‐ hydroxyphenoxy)phenyl]methyl}‐5‐methyl‐1,2‐oxazole‐3‐ carboxamide (29)] gave an IC50 of 100 nM. For `CCCCc1cn(Cc2ccc(Oc3ccc(Cl)cc3O)c(Cl)c2)nn1` [2‐{4‐[(4‐butyl‐1,2,3‐triazol‐1‐yl)methyl]‐2‐ chlorophenoxy}‐5‐chlorophenol (25)], the IC50 stood at 43 nM. Against the preceding compound, the IC50 is about 2.3-fold lower.
